# Measurements as given in patent US11613525B2 (CTXT PTY LIMITED, priority 2018, dated 2023).
# Counter-ions that a name gives are not always drawn. Like-named read-outs stand apart in the source and are kept apart here.
# Columns and labels:
# huSTING (HAQ) = huSTING (HAQ) (Homo sapiens (Human), UniProt Q86WV6, G230A/H232R/R293Q/R71H); experiment: THP-1 reporter cell line assay, THP-1 STING Lucia ISG cells; format: cell-based; settings: THP-1 STING Lucia ISG cells, read-out: Cellular EC50 huSTING (HAQ)
# huSTING (WT) = huSTING (WT) (Homo sapiens (Human), UniProt Q86WV6, H232R); experiment: THP-1 reporter cell line assay, THP-1-Dual KI-hSTING-R232 cells; format: cell-based; settings: read-out: Cellular EC50 huSTING (WT)
# [1] = modified method, top concentration 40 μM, pin tool, EnVision
# Chain of huSTING (WT) (Q86WV6 whole entry H232R): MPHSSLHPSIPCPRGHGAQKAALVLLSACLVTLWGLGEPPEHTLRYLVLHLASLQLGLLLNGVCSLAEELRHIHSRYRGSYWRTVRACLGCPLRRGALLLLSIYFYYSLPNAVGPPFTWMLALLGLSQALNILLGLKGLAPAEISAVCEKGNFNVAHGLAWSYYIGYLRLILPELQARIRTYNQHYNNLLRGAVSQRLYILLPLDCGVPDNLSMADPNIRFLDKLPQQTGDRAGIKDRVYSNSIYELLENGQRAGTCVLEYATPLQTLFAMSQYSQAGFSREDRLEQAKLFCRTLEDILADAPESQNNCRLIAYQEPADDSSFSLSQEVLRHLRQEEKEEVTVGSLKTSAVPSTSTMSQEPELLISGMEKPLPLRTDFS
# Chain of huSTING (HAQ) (Q86WV6 whole entry R71H/G230A/H232R/R293Q): as the sequence (Q86WV6 whole entry H232R) above, with R71H, G230A, R293Q counted along it
Structure (SMILES),"EC50 (huSTING (HAQ); 24 h, top concentration 50 μM)",EC50 (huSTING (WT)),EC50 (huSTING (HAQ); [1])
"CCOC(=O)c1sc2cccc(F)c2c1COc1ccc(C(N)=O)c(C)c1 [Example 53, Ethyl 3-((4-carbamoyl-3-methylphenoxy)methyl)-4-fluorobenzo[b]thiophene-2-carboxylate]",> 50000 nM,> 50000 nM,
"CCOC(=O)c1sc2c(F)ccc(F)c2c1COc1c(F)cc(C(N)=O)cc1F [Example 79, Ethyl 3-((4-carbamoyl-2,6-difluorophenoxy)methyl)-4,7-difluorobenzo[b]thiophene-2-carboxylate]",170 nM,474 nM,
"CC(=O)OC(C)OC(=O)c1sc2cccc(Cl)c2c1COc1c(F)cc(C(N)=O)cc1F (centres unmarked) [Example 134, 1-Acetoxyethyl 3-((4-carbamoyl-2,6-difluorophenoxy)methyl)-4-chlorobenzo[b]thiophene-2-carboxylate]",,217 nM,42 nM
"CCOC(=O)c1sc2c(OC)ccc(Cl)c2c1COc1c(F)cc(C(N)=O)cc1F [Example 149, Ethyl 3-((4-carbamoyl-2,6-difluorophenoxy)methyl)-4-chloro-7-methoxybenzo[b]thiophene-2-carboxylate]",,797 nM,613 nM
"NC(=O)c1cc(F)c(OCc2c(C(=O)OCCN3CCOCC3)sc3cccc(Cl)c23)c(F)c1 [Example 137, 2-Morpholinoethyl 3-((4-carbamoyl-2,6-difluorophenoxy)methyl)-4-chlorobenzo[b]thiophene-2-carboxylate]",,226 nM,21 nM
"CCOC(=O)c1sc2cccc(Cl)c2c1COc1ccc2c(N)noc2c1 [Example 47, Ethyl 3-(((3-aminobenzo[d]isoxazol-6-yl)oxy)methyl)-4-chlorobenzo[b]thiophene-2-carboxylate]",18700 nM,> 50000 nM,
"CCOC(=O)c1sc2cccc(Cl)c2c1COc1c(C)cc(C(N)=O)cc1OC [Example 72, Ethyl 3-((4-carbamoyl-2-methoxy-6-methylphenoxy)methyl)-4-chlorobenzo[b]thiophene-2-carboxylate]",7440 nM,> 50000 nM,
"CCOC(=O)c1sc2c(C#N)ccc(Cl)c2c1COc1c(F)cc(C(N)=O)cc1F [Example 153, Ethyl 3-((4-carbamoyl-2,6-difluorophenoxy)methyl)-4-chloro-7-cyanobenzo[b]thiophene-2-carboxylate]",,207 nM,129 nM
"CCOC(=O)c1sc2cccc(Cl)c2c1COc1cc(F)c(C(N)=O)c(F)c1 [Example 27, Ethyl 3-((4-carbamoyl-3,5-difluorophenoxy)methyl)-4-chlorobenzo[b]thiophene-2-carboxylate]",> 50000 nM,> 50000 nM,
"CC(=O)N[C@H](C(=O)OCOC(=O)c1sc2cccc(Cl)c2c1COc1c(F)cc(C(N)=O)cc1F)C(C)C [Example 139, ((Acetyl-L-valyl)oxy)methyl 3-((4-carbamoyl-2,6-difluorophenoxy)methyl)-4-chlorobenzo[b]thiophene-2-carboxylate]",,291 nM,36 nM
"CCOC(=O)c1sc2cccc(Cl)c2c1COc1ccc(C(N)=O)c(COC)c1 [Example 150, Ethyl 3-((4-carbamoyl-3-(methoxymethyl)phenoxy)methyl)-4-chlorobenzo[b]thiophene-2-carboxylate]",,489 nM,550 nM
"CC(C)[C@H](N)C(=O)OCOC(=O)c1sc2cccc(Cl)c2c1COc1c(F)cc(C(N)=O)cc1F [Example 152, ((L-Valyl)oxy)methyl 3-((4-carbamoyl-2,6-difluorophenoxy)methyl)-4-chlorobenzo[b]thiophene-2-carboxylate trifluoroacetate salt]",,53700 nM,967 nM
"CCOC(=O)c1sc2cccc(COC)c2c1COc1c(F)cc(C(N)=O)cc1F [Example 115, Ethyl 3-((4-carbamoyl-2,6-difluorophenoxy)methyl)-4-(methoxymethyl)benzo[b]thiophene-2-carboxylate]",,1510 nM,635 nM
